The numbers were not newly measured in patent US20050101565A1, “Pharmaceutical compositions and methods for treating, preventing, and managing cholesterol, dyslipidemia, and related disorders” (Esperion Therapeutics, Inc., priority 2002, published 2005), which cites them from elsewhere.

The conditions of data set [1]: patients on metformin therapy.
The conditions of data set [2]: many patients, metformin therapy.

On to `CN(C)C(=N)N=C(N)N` [metformin], for which the “incidence of lactic acidosis” value in data set [1] was 3 cases per 100,000 patient/year of therapy. The weight reduction in data set [2] is 5-10%.
